For experiment [1], the target named is T1, PDK1 (Homo sapiens, UniProt O15530).
T1 sequence (O15530 1-556): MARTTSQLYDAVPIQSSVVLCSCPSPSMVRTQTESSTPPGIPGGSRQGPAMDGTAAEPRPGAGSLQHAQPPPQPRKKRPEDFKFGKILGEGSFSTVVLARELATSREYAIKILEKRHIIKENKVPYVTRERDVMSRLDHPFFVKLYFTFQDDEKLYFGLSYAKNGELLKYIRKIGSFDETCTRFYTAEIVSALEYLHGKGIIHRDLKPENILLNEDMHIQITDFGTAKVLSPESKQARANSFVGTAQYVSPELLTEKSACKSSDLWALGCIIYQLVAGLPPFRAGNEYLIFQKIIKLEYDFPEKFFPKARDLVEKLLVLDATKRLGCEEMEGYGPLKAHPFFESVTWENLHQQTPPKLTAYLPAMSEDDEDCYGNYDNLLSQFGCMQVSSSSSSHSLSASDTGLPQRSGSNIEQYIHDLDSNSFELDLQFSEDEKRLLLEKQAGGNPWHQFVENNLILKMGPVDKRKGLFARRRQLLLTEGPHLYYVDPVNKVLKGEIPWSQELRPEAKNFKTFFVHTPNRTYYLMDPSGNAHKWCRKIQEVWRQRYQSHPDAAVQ
Briefly: PDK1 activity towards synthetic peptide substrates T308tide or PDKtide. In kind it is biochemical. Set-up: Full length PDK1 (residues 1-556); made in house; host or cells: 293 cells. Particulars: substrate T308tide. As for the experimental part:
FIG. 12. PDK1 is activated and stabilised through its interaction with PIFtide. (A) GST-PDK1 activity was measured in the presence of increasing concentrations of wild type (wt) PIFtide (closed circles) or a mutant D978A PIFtide (open circles) using the synthetic peptide substrate termed T308tide, as described in Material and Methods. The data was fitted to a hyperbola using the Kaleidagraph™ software. The connection needed to obtain 50% activation of PDK1 was […] for wt-PIFtide and 1.1 μM for D978A-PIFtide. The assay shown was performed in triplicate and there was less than 5% difference between each assay. Similar results were obtained in 2 further experiments (B)—The wild type GST-PDK1 (circles) or the L155D mutant of GST-PDK1 (squares) was incubated in the presence (closed symbols) or absence (open symbols) of […] PIFtife and then for 2 min at the indicated temperatures, rapidly brought to 0° C. (see Materials and Methods), and 2 min later assayed at 30° C. for 10 min using T308tide as substrate. The activity of PDK1 obtained by incubation at 30° C. was taken as 100%. The assay shown was performed in duplicate with similar results obtained in two separate experiments.
FIG. 14. […] (A) His-PDK1 was assayed for activity using as substrate the indicated concentration of either PDKtide (open triangles) or T308tide (open circles). […]
PDK1's ability to phosphorylate Thr308 of PKBα was measured using a mutant of GST-PKBα in which Ser473 was mutated to Asp (GST-473D PKBα) in the presence of phospholipid vesicles containing sn-1-stearoyl-2-arachidonoyl-D-PtdIns (3, 4, 5)P3 [13]. […] 35 μl of the resultant mixture was spotted into P81 phosphocellulose paper (2×2 cm) and the papers washed and analysed as described previously for assays of MAP kinase. […] Control assays were carried out in parallel in which either PDK1, or peptide substrate were omitted; these values were always less than 5% of the activity measured in the presence of these reagents. […]

In experiment [2] the target is T1, PDK1. Briefly: Phosphorylation of p70 S6K at Thr412 by PDK1 in vitro (T412-P immunoblot). The format is biochemical. Set-up: made in house; host or cells: 293 cells or E. coli. As to conditions: peptide 4 μM. As for the experimental part:
FIG. 2. PDK1 phosphorylates p70 S6K at Thr412 in vitro and this is inhibited by PIF. 0.5 μg of either wild type GST-p70 S6K-T2 (wt), T252A-GST-p70 S6K-T2 (252A) or T412A-GST-p70 S6K-T2 (412A) were incubated for 90 min at 30° C. with MgATP in the presence or absence of wild type (wt) or kinase-dead (kd) GST-PDK1 expressed in either 293 cells or bacteria in the presence (+) or absence (−) of the wild type PIF peptides (4 μM) in a final volume of 20 μl. The reactions were terminated by making the solutions 1% in SDS, the samples were subjected to SDS-polyacylamide gel electrophoresis, and the phosphorylation of p70 S6K at Thr412 was assessed by immunoblotting with the T-412P antibody. Similar results were obtained in three separate experiments.
Immunoblotting for dephosphorylated and Thr412-phosphorylated p70 S6 kinase. Cell lysates were made 1% SDS and the indicated amounts of protein were subjected to SDS/Polyacrylamide gel electrophoresis, subsequently transferred to nitrocellulose and immunoblotted using the indicated monoclonal antibody or the T412-P phospho-specific antibody (0.4 μg/ml) in 50 mM Tris/HCl pH7.5, 0.15M NaCl, 0.5% (by vol) Tween and 10% (by mass) skimmed milk. Detection was performed using the enhanced chemiluminescence reagent (Amersham Pharmacia Biotech).
Background: In western blotting, separated proteins are transferred to a membrane and probed.

The target of experiment [3] is PDK1. As to conditions: ref [24], cited from earlier work.

Each structure is given as a SMILES string. pEC50, pKd: −log10 of the molar value. Where a SMILES comes first, the peptide text is derived from it.

A word on the pKd: it is the Kd on a negative log10 scale, so that one unit is a factor of ten. In the case of `CC[C@H](C)[C@H](NC(=O)[C@H](Cc1ccc(O)cc1)NC(=O)[C@H](CC(=O)O)NC(=O)[C@H](Cc1ccccc1)NC(=O)[C@H](CC(=O)O)NC(=O)[C@H](CCCNC(=N)N)NC(=O)[C@H](Cc1ccccc1)NC(=O)[C@H](CCSC)NC(=O)[C@H](CCC(=O)O)NC(=O)[C@H](CCC(N)=O)NC(=O)[C@H](CCC(=O)O)NC(=O)[C@H](CCC(=O)O)NC(=O)[C@H](CCC(=O)O)NC(=O)[C@H](CO)NC(=O)[C@H](CC(C)C)NC(=O)[C@@H](NC(=O)[C@H](CCCNC(=N)N)NC(=O)[C@@H]1CCCN1C(=O)[C@H](CCC(=O)O)NC(=O)[C@@H](N)CCCNC(=N)N)[C@@H](C)CC)C(=O)N[C@@H](C)C(=O)N[C@@H](CC(=O)O)C(=O)N[C@@H](Cc1c[nH]c2ccccc12)C(=O)N[C@@H](CS)C(=O)O` [PIFtide] (H-REPRILSEEEQEMFRDFDYIADWC-OH; N-terminus and C-terminus assumed), at PDK1 [1] (GST-PDK1, read-out: concentration required for half-maximal (50%) activation of PDK1), the pEC50 was 6.85. Moreover, the “increase in PDK1 activity towards T308tide” value at PDK1 [1] is recorded as “up to 4 fold”. Further, the “effect on phosphorylation of p70 S6K at Thr412 by PDK1” value at PDK1 [2] is recorded as “prevented”. Moreover, on PDK1 [3] (read-out: affinity of PDK1 for PIFtide (Kd)), the negative-log Kd (pKd) was roughly 6.52.
Take `CC[C@H](C)[C@H](NC(=O)[C@H](CCCNC(=N)N)NC(=O)[C@@H]1CCCN1C(=O)[C@H](CCC(=O)O)NC(=O)[C@@H](N)CCCNC(=N)N)C(=O)N[C@@H](CC(C)C)C(=O)N[C@@H](CO)C(=O)N[C@@H](CCC(=O)O)C(=O)N[C@@H](CCC(=O)O)C(=O)N[C@@H](CCC(=O)O)C(=O)N[C@@H](CCC(N)=O)C(=O)N[C@@H](CCC(=O)O)C(=O)N[C@@H](CCSC)C(=O)N[C@@H](Cc1ccccc1)C(=O)N[C@@H](CCCNC(=N)N)C(=O)N[C@@H](CC(=O)O)C(=O)N[C@@H](Cc1ccccc1)C(=O)N[C@@H](C)C(=O)N[C@@H](Cc1ccc(O)cc1)C(=O)N[C@@H](CC(C)C)C(=O)N[C@@H](C)C(=O)N[C@@H](CC(=O)O)C(=O)N[C@@H](Cc1c[nH]c2ccccc12)C(=O)N[C@@H](CS)C(=O)O` [D978A-PIFtide] (H-REPRILSEEEQEMFRDFAYLADWC-OH; N-terminus and C-terminus assumed): at PDK1 [1], the “less effective at inducing PDK1 activation than wild type PIFtide” value was 8 fold. For the same molecule, in the experiment on PDK1 [3], the “reduced affinity for PDK1 compared with wild type PIFtide” value is reported as 10 fold.

The values are drawn from patent US20080009025A1, “PROTEIN KINASE REGULATION” (priority 1999, published 2008).
